# Measurements reported in patent US20090305886A1, “Pesticidal Mixtures” (BASF SE, priority 2006, published 2009).
# Tests used:
# Type in all cases: in vivo
# [1] = tested on: Boll Weevil (Anthonomus grandis); experiment: Boll Weevil (Anthonomus grandis) egg microtiterplate test
# Procedure: Boll Weevil (Anthonomus grandis)
# The active compounds are formulated in 1:3 DMSO:water. 10 to 15 eggs are placed into microtiterplates filled with 2% agar-agar in water and 300 ppm formaline. The eggs are sprayed with 20 μl of the test solution, the plates are sealed with pierced foils and kept at 24-26° C. and 75-85% humidity with a day/night cycle for 3 to 5 days. Mortality is assessed on the basis of the remaining unhatched eggs or larvae on the agar surface and/or quantity and depth of the digging channels caused by the hatched larvae. Tests are replicated 2 times.
# (§1) The presence of a synergistic effect in terms of percent control, between the two mixing partners (X and Y) is calculated using the Colby equation (Colby, S. R., 1967, Calculating Synergistic and Antagonistic Responses in Herbicide Combinations, Weeds, 15, 20-22):
# (§2) When the observed combined control effect is greater than the expected combined control effect (E), then the combined effect is synergistic.
# [2] = tested on: Mediterranean Fruitfly (Ceratitis capitata); experiment: Mediterranean Fruitfly (Ceratitis capitata) egg microtiterplate test
# Procedure: Mediterranean Fruitfly (Ceratitis capitata)
# (§3) The active compounds are formulated in 1:3 DMSO:water. 50 to 80 eggs are placed into microtiterplates filled with 0.5% agar-agar and 14% diet in water. The eggs are sprayed with 5 μl of the test solution, the plates are sealed with pierced foils and kept at 27-29° C. and 75-85% humidity under fluorescent light for 6 days. Mortality is assessed on the basis of the agility of the hatched larvae. Tests are replicated 2 times.
# as §1, §2
# [3] = tested on: Vetch Aphid (Megoura viciae); experiment: Vetch Aphid (Megoura viciae) leaf disk microtiterplate test
# Procedure: Vetch Aphid (Megoura viciae)
# The active compounds are formulated in 1:3 DMSO:water. Bean leaf disks are placed into microtiterplates filled with 0.8% agar-agar and 2.5 ppm OPUS™. The leaf disks are sprayed with 2.5 μl of the test solution and 5 to 8 adult aphids are placed into the microtiterplates which are then closed and kept at 22-24° C. and 35-45% under fluorescent light for 6 days. Mortality is assessed on the basis of vital, reproduced aphids. Tests are replicated 2 times.
# as §1, §2
# [4] = tested on: Tobacco Budworm (Heliothis virescens); experiment: Tobacco Budworm (Heliothis virescens) test protocol no. II
# Procedure: Tobacco Budworm (Heliothis virescens)—Test Protocol no. II
# as §3, with “DMSO:water. 15” for “DMSO:water. 50”, “to 25” for “to 80”, “with diet.” for “with 0.5% agar-agar and 14% diet in water.”, “with 10” for “with 5”, “agility and of comparative feeding” for “agility”
# as §1, §2
# [5] = 0 + 0.1 ppm (compound I-1 alone)
# [6] = 0 + 100 ppm (compound I-1 alone)
# [7] = 0 + 0.3 ppm (compound I-1 alone)
compound,measurement,setting,value
CC(C)N1C(=O)N(c2ccccc2)CS/C1=N\C(C)(C)C [buprofezine],Average Control %,[1]; 10 + 0 ppm (buprofezine alone),0%
same,Average Control %,[2]; 3 + 0 ppm (buprofezine alone),0%
"N#CC(C#N)(CCC(F)(F)F)CC(F)(F)C(F)(F)C(F)(F)C(F)F [compound I-1, 2-(2,2,3,3,4,4,5,5-octafluoro-pentyl)-2-(3,3,3-trifluoro-propyl)-malononitrile]",Average Control %,[3]; [5],0%
same,Average Control %,[3]; [6],0%
same,Average Control %,[1]; [5],0%
same,Average Control %,[1]; [7],0%
same,Average Control %,[1]; 0 + 3 ppm (compound I-1 alone),0%
same,Average Control %,[2]; [5],0%
same,Average Control %,[2]; 0 + 30 ppm (compound I-1 alone),0%
same,Average Control %,[2]; [6],0%
same,Average Control %,[4]; [7],0%
CC(C)c1cc(Oc2ccccc2)cc(C(C)C)c1NC(=S)NC(C)(C)C [diafenthiuron],Average Control %,[4]; 300 + 0 ppm (diafenthiuron alone),0%
N#Cc1nn(-c2c(Cl)cc(C(F)(F)F)cc2Cl)c(N)c1[S+]([O-])C(F)(F)F (stereo not drawn) [fipronil],Average Control %,[3]; 3 + 0 ppm (fipronil alone),50%
same,Average Control %,[1]; 1 + 0 ppm (fipronil alone),0%
same,Average Control %,[2]; 1 + 0 ppm (fipronil alone),0%
O=[N+]([O-])NC1=NCCN1Cc1ccc(Cl)nc1 [imidacloprid],Average Control %,[1]; 3 + 0 ppm (imidacloprid alone),0%
spinosad,Average Control %,[3]; 300 + 0 ppm (spinosad alone),0%
same,Average Control %,[2]; 0.3 + 0 ppm (spinosad alone),0%
